According to patent US5648336A (University of Colorado, priority 1994, dated 1997):
Like-named read-outs stand apart in the source and are kept apart here. Square brackets hold non-standard residues; d marks the D form. Peptide text beside a SMILES is read from it. Oic = O=C(O)[C@@H]1C[C@@H]2CCCC[C@@H]2N1; dIgl = N[C@@H](C(=O)O)C1Cc2ccccc2C1; Igl = N[C@H](C(=O)O)C1Cc2ccccc2C1; Hyp = O=C(O)[C@@H]1C[C@@H](O)CN1; NMeF = CN[C@@H](Cc1ccccc1)C(=O)O; 2Thi = N[C@@H](Cc1cccs1)C(=O)O

Key:
isolated rat uterus = tested on: isolated rat uterus
Source text: (§1) A change of one unit of pA2 value represents an order of magnitude change in potency.
(§2) On isolated smooth muscles, agonist potency is given as percent of BK potency; antagonist potency is given as pA2, and is underlined. In blood pressure assays, the number is the dose of peptide in micrograms that causes 50% reduction in the effect of BK intraarterially administered as a bolus mixture in a 500 g male rat; Ag indicates unquantitated agonist activity; Ant indicates unquantitated antagonist activity.

guinea pig ileum = tested on: guinea pig ileum
Source text: as §1, §2

B1 receptors = molecular target: T1, B1 receptors (Oryctolagus cuniculus, UniProt P48748); experiment: B1 receptor bioassay, rabbit aorta strips contracted with des-Arg9-BK; format: cell-based; conditions: 50% reduction of sustained contraction to 10^-7 M des-Arg9-BK; read-out: Rabbit Aorta p IC50 B1 receptors (converted)
T1 construct: The thorax was opened and the thoracic aorta carefully removed; from tissue; host or cells: rabbit thoracic aorta spiral strips
T1 sequence (P48748 1-352): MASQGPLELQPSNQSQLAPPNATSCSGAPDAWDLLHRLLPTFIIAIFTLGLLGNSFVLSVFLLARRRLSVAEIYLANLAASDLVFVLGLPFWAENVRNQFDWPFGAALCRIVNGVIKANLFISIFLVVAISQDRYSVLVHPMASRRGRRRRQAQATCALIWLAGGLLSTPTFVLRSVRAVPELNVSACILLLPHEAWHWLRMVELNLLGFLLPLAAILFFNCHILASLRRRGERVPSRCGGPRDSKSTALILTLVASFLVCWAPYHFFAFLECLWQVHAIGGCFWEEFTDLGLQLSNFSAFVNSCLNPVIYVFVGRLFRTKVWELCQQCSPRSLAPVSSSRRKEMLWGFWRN
Procedure: Male New Zealand white rabbits, weight range 2-3 kg, were killed by an overdose of pentobarbital i.v. The thorax was opened and the thoracic aorta carefully removed. […] The tissues were placed under 1 gm isometric tension and allowed to equilibrate for 1H. At time 1h, a concentration-effect curve was constructed to the selective B1 agonist des-Arg^9 -BK. This was repeated at time 3 hours. […] Once the contraction was sustained, the compound to be assayed was applied to the tissue bath in a cumulative manner. The concentration of the compound which produced a 50% reduction of the sustained contraction was calculated. The negative logarithm of this concentration was calculated and expressed as the […].

Human B2 receptors = molecular target: T2, Human B2 receptors (Homo sapiens, UniProt P30411); experiment: Human B2 binding, cloned receptor in CHO cell membranes, 3H-bradykinin
T2 construct: expressed in transfected cells; membranes used
T2 sequence (P30411 1-364 isoform P30411-2): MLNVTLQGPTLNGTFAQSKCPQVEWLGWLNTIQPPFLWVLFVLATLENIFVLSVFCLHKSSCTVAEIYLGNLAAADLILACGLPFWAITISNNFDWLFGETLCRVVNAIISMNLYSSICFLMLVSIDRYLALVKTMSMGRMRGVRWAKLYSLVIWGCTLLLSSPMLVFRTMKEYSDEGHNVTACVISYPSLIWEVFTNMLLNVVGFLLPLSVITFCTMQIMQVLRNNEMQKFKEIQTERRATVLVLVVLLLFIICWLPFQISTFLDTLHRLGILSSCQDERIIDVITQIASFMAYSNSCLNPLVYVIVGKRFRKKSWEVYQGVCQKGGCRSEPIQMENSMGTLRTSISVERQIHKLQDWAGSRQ
Source text: Human B2 receptors were cloned and expressed in Chinese hamster ovary cells. RNA was isolated from human lung fibroblasts (CCD-16 LU obtained from the ATCC) using the method of Chirgwin et al (Biochemistry 18:5294 (1979)). The RNA was transcribed into cDNA using MMLV reverse transcriptase, the primer […] and the procedure of Maniatis (Molecular Cloning Cold Spring Harbor Laboratory (1982)). The human B2 receptor cDNA was selectively amplified using nested PCR. The first round PCR used the two primers […] and […] and Taq DNA polymerase (Promega). Twenty-five rounds of PCR were done using the following conditions: 94° C., 1 minute for denaturation, 50° C., 1 minute for annealing followed by 72° C., 3 minutes for extension. Excess primers were removed with a Centricon 30 miniconcentrator. A portion of this first round reaction was used as a template in a second round of PCR using the following primers […] and […]. The number of rounds of PCR and the conditions were the same as those used for the first round. The DNA obtained after this second round was digested with the restriction enzymes Hind III and Xba I using standard methodology. Cesium chloride-purified pRc/CMV (Invitrogen) was also digested with Hind III and Xba I using standard methodology. The products of the two digests were resolved on a 1% low melt agarose gel. The human B2 receptor DNA (approximately 1.1 kb) and the pRc/CMV DNA (approximately 5.5 kb) were excised from the gel. The gel slices containing these DNAs were heated at 65° C. and aliquots combined in a reaction containing T4 DNA ligase. The reaction was incubated overnight at 15° C.
An aliquot of this reaction was used to transform frozen competent E. coli DH5α cells (GibcoBRL). Transformants containing the human B2 receptor DNA were selected on LB+amp plates. One of the transformants was selected and the sequence of the human B2 receptor DNA insert determined using the Sequenase enzyme (United States Biochemical) according to the manufacturer's instructions. This sequence was compared to the sequence of Hess et al (Biochemical and Biophysical Research Communications 184:260 1992)). […] The human BK2 receptor-pRc/CMV plasmid was transfected into CHO-k1 cells using the Lipofectamine reagent (GibcoBRL).
Cells containing the receptor were grown to confluence and harvested by scraping into PBS and homogenized. Membranes were prepared by centrifugation in 25 mM TES pH6.8 containing 1 mM 1.10 Phenanthroline. The final pellet was resuspended in assay buffer (25 mM TES, 1 mM 1.10 Phenanthroline, 1 mM DTT, […] Captopril, 0.1% BSA pH=6.8) and frozen. […] Incubation was carried out at room temperature for 45 min. The assay was terminated by filtration through a polyethylenimine soaked G-A filter. Radioactivity was measured on a Wallac 1450 MicroBeta LSC.
The Kd for the receptor was determined by kinetic analysis of on and off rates utilizing a single exponential decay off rate. Ki 's for compounds were calculated using the following equation: Ki =IC50 /(1+[L]/Kd), where L=free ligand concentration.

[1] = CHO clone S34f membranes, 0.3 nM 3H-Bradykinin, room temperature 45 min, read-out: Human Receptor Clone B2 receptor binding (Ki) (converted)

| Compound | Uterus Activity, antagonist potency given as pA2 (isolated rat uterus) | Ileum Activity, antagonist potency given as pA2 (guinea pig ileum) | IC50 (B1 receptors) | Ki (Human B2 receptors; [1]) | Ki (Human B2 receptors) |
| --- | --- | --- | --- | --- | --- |
| N=C(N)NCCC[C@H](NC(=O)[C@@H]1C[C@@H]2CCCC[C@@H]2N1C(=O)[C@H](NC(=O)[C@H](CO)NC(=O)[C@@H](NC(=O)CNC(=O)[C@@H]1C[C@@H](O)CN1C(=O)[C@@H]1CCCN1C(=O)[C@H](CCCNC(=N)N)NC(=O)[C@@H](CCCNC(=N)N)NC(=O)C12CC3CC(CC(C3)C1)C2)C1Cc2ccccc2C1)C1Cc2ccccc2C1)C(=O)O [Compound 2, Aca-DArg-Arg-Pro-Hyp-Gly-Iglb-Ser-DIg lb-Oic-Arg] | 7.5 | 7.8 | 1780 nM | 0.0447 nM | – |
| N=C(N)NCCC[C@H](NC(=O)[C@@H]1C[C@@H]2CCCC[C@@H]2N1C(=O)[C@H](NC(=O)[C@H](CO)NC(=O)[C@@H](NC(=O)CNC(=O)[C@@H]1C[C@@H](O)CN1C(=O)[C@@H]1CCCN1C(=O)[C@H](CCCNC(=N)N)NC(=O)[C@@H](CCCNC(=N)N)NC(=O)C1=CN2CCC1CC2)C1Cc2ccccc2C1)C1Cc2ccccc2C1)C(=O)O [Compound 3, Dhg-DArg-Arg-Pro-Hyp-Gly-Iglb-Ser-DIg lb-Oic-Arg] | 7.4 | 7.6 | 1170 nM | 0.00141 nM | – |
| N=C(N)NCCC[C@H](NC(=O)[C@@H]1C[C@@H]2CCCC[C@@H]2N1C(=O)[C@H](NC(=O)[C@H](CO)NC(=O)[C@H](Cc1cccs1)NC(=O)CNC(=O)[C@@H]1C[C@@H](O)CN1C(=O)[C@@H]1CCCN1C(=O)[C@@H](N)CCCNC(=N)N)C1Cc2ccccc2C1)C(=O)O [Compound 5, Arg-Pro-Hyp-Gly-Thi-Ser-DIglb-Oic-Arg] (H-RP[Hyp]G[2Thi]S[dIgl][Oic]R-OH) | – | 7.7 | 1550 nM | 0.0692 nM | – |
| N=C(N)NCCC[C@@H](N)C(=O)N[C@@H](CCCNC(=N)N)C(=O)N1CCC[C@H]1C(=O)N1C[C@H](O)C[C@H]1C(=O)NCC(=O)N[C@@H](Cc1cccs1)C(=O)N[C@@H](CO)C(=O)N(CC(=O)N1[C@H](C(=O)N[C@@H](CCCNC(=N)N)C(=O)O)C[C@@H]2CCCC[C@@H]21)C1Cc2ccccc2C1 [Compound 16, DArg-Arg-Pro-Hyp-Gly-Thi-Ser-Nigb-Oic-Arg] | 6.8 | 7.0 | – | 0.309 nM | – |
| N=C(N)NCCC[C@@H](N)C(=O)N[C@@H](CCCNC(=N)N)C(=O)N1CCC[C@H]1C(=O)N1C[C@H](O)C[C@H]1C(=O)NCC(=O)N[C@@H](Cc1cccs1)C(=O)N[C@@H](CO)C(=O)N[C@@H](C(=O)N1Cc2ccccc2C[C@H]1C(=O)N[C@@H](CCCNC(=N)N)C(=O)O)C1Cc2ccccc2C1 [Compound 22, DArg-Arg-Pro-Hyp-Gly-Thi-Ser-DIglb-Tic-Arg] | 7.0 | 6.8 | 1780 nM | 0.0126 nM | – |
| N=C(N)NCCC[C@@H](N)C(=O)N[C@@H](CCCNC(=N)N)C(=O)N1CCC[C@H]1C(=O)N1C[C@H](O)C[C@H]1C(=O)NCC(=O)N[C@@H](Cc1cccs1)C(=O)N[C@@H](CO)C(=O)N1Cc2ccccc2C[C@@H]1C(=O)N(CC(=O)N[C@@H](CCCNC(=N)N)C(=O)O)C1Cc2ccccc2C1 [Compound 23, DArg-Arg-Pro-Hyp-Gly-Thi-Ser-DTic-Nigb-Arg] | 8.3 | 7.2 | > 10000 nM | 0.0158 nM | – |
| Cc1ccc(C[C@@H](NC(=O)CNC(=O)[C@@H]2C[C@@H](O)CN2C(=O)[C@@H]2CCCN2C(=O)[C@H](CCCNC(=N)N)NC(=O)[C@H](N)CCCNC(=N)N)C(=O)N[C@@H](CO)C(=O)N[C@@H](C(=O)N2[C@H](C(=O)N[C@@H](CCCNC(=N)N)C(=O)O)C[C@@H]3CCCC[C@@H]32)C2Cc3ccccc3C2)c(C)c1 [Compound 27, DArg-Arg-Pro-Hyp-Gly-DDMF-Ser-DIglb-Oic-Arg] | 8.0 | 6.9 | > 10000 nM | 0.178 nM | – |
| N=C(N)NCCC[C@@H](N)C(=O)N[C@@H](CCCNC(=N)N)C(=O)N1CCC[C@H]1C(=O)N1C[C@H](O)C[C@H]1C(=O)NCC(=O)N[C@H](Cc1cccs1)C(=O)N[C@@H](CO)C(=O)N[C@@H](C(=O)N1[C@H](C(=O)N[C@@H](CCCNC(=N)N)C(=O)O)C[C@@H]2CCCC[C@@H]21)C1Cc2ccccc2C1 [Compound 31, DArg-Arg-Pro-Hyp-Gly-DThi-Ser-DIglb-Oic-Arg] | – | – | > 10000 nM | – | 0.01 nM |
| CN(C(=O)[C@H](CCCNC(=N)N)NC(=O)[C@H](N)CCCNC(=N)N)[C@@H](Cc1ccccc1)C(=O)N1C[C@H](O)C[C@H]1C(=O)NCC(=O)N[C@H](C(=O)N[C@@H](CO)C(=O)N[C@@H](C(=O)N1[C@H](C(=O)N[C@@H](CCCNC(=N)N)C(=O)O)C[C@@H]2CCCC[C@@H]21)C1Cc2ccccc2C1)C1Cc2ccccc2C1 [Compound 45, DArg-Arg-NMF-Hyp-Gly-Iglb-Ser-DIglb-Oic-Arg] (H-[dR]R[NMeF][Hyp]G[Igl]S[dIgl][Oic]R-OH) | – | – | 2880 nM | 0.141 nM | – |
| N=C(N)NCCC[C@H](NC(=O)[C@@H]1C[C@@H]2CCCC[C@@H]2N1C(=O)[C@H](NC(=O)[C@H](COS(=O)(=O)O)NC(=O)[C@H](Cc1cccs1)NC(=O)CNC(=O)[C@@H]1C[C@@H](O)CN1C(=O)[C@@H]1CCCN1C(=O)[C@H](CCCNC(=N)N)NC(=O)[C@@H](CCCNC(=N)N)NC(=O)C12CC3CC(CC(C3)C1)C2)C1Cc2ccccc2C1)C(=O)O [Compound 61, Aca-DArg-Arg-Pro-Hyp-Gly-Thi-Ser(SO)-DIglb-Oic-Arg] | – | 7.5 | 4170 nM | 4.07 nM | – |
